The text below walks through data of paper PMC9871955, “High-throughput screening of SARS-CoV-2 main and papain-like protease inhibitors” (Protein & Cell, 2022).

Structures are written as SMILES. Read-outs that look alike come from different tables or passages of the source.

For data set [1], the system named is Vero cells.
Data set [2] has as its target SARS-CoV-2 M^pro (Severe acute respiratory syndrome coronavirus 2, UniProt P0DTD1). Description: biochemical.
Where [3] appears, read: Table S2, PL^pro inhibitors, same inhibitor concentration.
Where [4] appears, read: Table S1, M^pro inhibitors, same inhibitor concentration (10 µg/mL).
The mark [5] stands for this setting: read-out: IC50 / inhibitory activity against M^pro.
[6] abbreviates: Table S3, representative dual inhibitors, read-out: IC50 for M^pro.
The mark [7] stands for this setting: Table S1, M^pro inhibitors, 40 nmol/L enzyme, 20 µmol/L substrate, read-out: IC50.

`CCC(C(=O)NCc1ccco1)n1c(Cc2c(Cl)cccc2Cl)nc2ccccc21` (stereo not shown) [CD3226-D010]: the “Cytotoxicity activity (%)” value in data set [1] (setting [3]) is on record as -22.39%.

`CC(C(=O)NCc1ccco1)n1c(Cc2c(Cl)cccc2Cl)nc2ccccc21` (stereo not shown) [CD3531-C011]: in data set [1] (setting [3]), the “Cytotoxicity activity (%)” value is on record as -14.28%.

As for `COc1ccc(CN2C(=O)NC(=O)/C(=C\c3ccco3)C2=O)cc1` [CDE0972-G011], the IC50 in data set [2] (read-out: IC50 (μM) at S/KM 1) amounted to 2.86 ± 0.53 µM; in data set [2] (read-out: IC50 (μM) at S/KM 1/2) it was 2.17 ± 0.2 µM; in data set [2] (read-out: IC50 (μM) at S/KM 2) it was 3.5 ± 0.42 µM. In addition, the “Cytotoxicity activity (%)” value in data set [1] (setting [4]) was -7.84%.

For `O=C(NCc1n[nH]c(=S)n1-c1ccc(Br)cc1)c1ccc(Cl)cc1Cl` [JK0108-D008], the IC50 was determined as 4.37 ± 0.84 µM in data set [2] (IC50 (μM) at S/KM 1), 5.83 ± 1.68 µM in data set [2] (IC50 (μM) at S/KM 2) and 0.5 µM in data set [2] (setting [5]). Moreover, the “Cytotoxicity activity (%)” value in data set [1] (setting [3]) was -8.62%.

Consider `CCOc1cc(C(=O)NCc2n[nH]c(=S)n2-c2ccc(Br)cc2)cc(OCC)c1OCC` [JK0109-B004], for which the IC50 in data set [2] (IC50 (μM) at S/KM 1) came out at 1.62 ± 0.24 µM; in data set [2] (IC50 (μM) at S/KM 1/2), 1.01 ± 0.25 µM; in data set [2] (IC50 (μM) at S/KM 2) it was 2.17 ± 0.27 µM; in data set [2] (setting [6]) it was 9.7 ± 0.1 µM. In data set [1] (setting [3]), the “Cytotoxicity activity (%)” value is recorded as -7.5%.

With `COc1ccc(-n2c(CNC(=O)COc3ccc(Cl)cc3Cl)n[nH]c2=S)cc1` [JK0109-B011], the IC50 in data set [2] (IC50 (μM) at S/KM 1) turned out to be 1.53 ± 0.58 µM; in data set [2] (IC50 (μM) at S/KM 1/2), 1.33 ± 0.26 µM; in data set [2] (setting [6]) it was 21.8 ± 0.3 µM. Also, in data set [1] (setting [3]), the “Cytotoxicity activity (%)” value is -7.31%.

As to `COc1ccc(-n2c(S)nnc2CNC(=O)c2cc(OC)c(OC)c(OC)c2)cc1` [JK0109-C011], the results for the IC50 in data set [2] (IC50 (μM) at S/KM 1), in data set [2] (IC50 (μM) at S/KM 1/2) and in data set [2] (setting [6]) were 16.1 ± 3.07 µM, 2.3 ± 0.96 µM and 42.8 ± 1.7 µM, respectively. The “Cytotoxicity activity (%)” value in data set [1] (setting [3]) is reported as -9.42%.

As to `O=C(COc1ccc(Cl)cc1)NCc1n[nH]c(=S)n1-c1ccc(Br)cc1` [JK0109-H005], in data set [2], the “IC50 (μM) at S/KM 1” value is 4.17 ± 1.29 µM. The results for the IC50 in data set [2] (IC50 (μM) at S/KM 1/2), in data set [2] (IC50 (μM) at S/KM 2) and in data set [2] (setting [6]) were 1.33 ± 0.28 µM, 3.36 ± 0.47 µM and 4.2 ± 0.7 µM, respectively. The “Cytotoxicity activity (%)” value in data set [1] (setting [3]) was -4.08%.

Regarding `O=c1sc2ccccc2n1Cc1n[nH]c(=S)n1-c1ccccc1` [JK0946-F007], the IC50 in data set [2] (IC50 (μM) at S/KM 1) came out at 9.67 ± 3.64 µM; in data set [2] (IC50 (μM) at S/KM 1/2), 3.56 ± 0.62 µM; in data set [2] (IC50 (μM) at S/KM 2) it was 8.97 ± 2.32 µM; in data set [2] (setting [6]), 8.7 ± 0.9 µM; in data set [2] (setting [5]), 4.2 ± 0.6 µM. Further, in data set [1] (setting [3]), the “Cytotoxicity activity (%)” value is -4.63%.

In the case of `COc1ccc(-n2c(S)nnc2CNc2ccc(C)cc2)cc1` [RUS0105-C005], the IC50 in data set [2] (setting [7]) was determined as 0.478 ± 0.009 µM. Also, in data set [1] (setting [4]), the “Cytotoxicity activity (%)” value was found to be 5.87%.

On to `O=C1NC(=O)C(=Cc2ccc(-c3cccc(Cl)c3)o2)C(=O)N1` [RUS0245-E010], for which the IC50 came to 0.25 ± 0.04 µM in data set [2] (IC50 (μM) at S/KM 1), 0.34 ± 0.04 µM in data set [2] (IC50 (μM) at S/KM 1/2), 0.34 ± 0.09 µM in data set [2] (IC50 (μM) at S/KM 2) and 0.196 ± 0.009 µM in data set [2] (setting [7]). For the same compound, in data set [1] (setting [4]), the “Cytotoxicity activity (%)” value is on record as -8.14%.

Turning to `O=C(Oc1cncc(Cl)c1)c1sccc1Cl` [WNN2048-F004], the “dependence of apparent IC50 on substrate concentration” value in data set [2] is on record as “consistent IC50 that is not affected by substrate concentration”. Further, the IC50 in data set [2] (IC50 (μM) at S/KM 1) turned out to be 0.35 ± 0.11 µM; in data set [2] (IC50 (μM) at S/KM 2), 0.33 ± 0.07 µM; in data set [2] (setting [7]), 0.131 ± 0.011 µM; in data set [2] (running text and Figure 4A, read-out: IC50 against M^pro), 0.103 ± 0.0052 µM. In data set [1] (setting [4]), the “Cytotoxicity activity (%)” value is reported as 6.16%. Moreover, the cytotoxicity effect entry in data set [1] (in words) is reported as “without cytotoxicity effect”.

`Cc1ccc(NCc2n[nH]c(=S)n2-c2ccccc2)cc1` [WNN2867-E005]: the IC50 in data set [2] (setting [7]) was 0.466 ± 0.101 µM. Further, the “Cytotoxicity activity (%)” value in data set [1] (setting [4]) was -6.94%.

In the case of `O=C1NC(=O)N(Cc2ccccc2)C(=O)C1=Cc1ccco1` [WNN3797-H008], the IC50 stood at 0.67 ± 0.28 µM in data set [2] (IC50 (μM) at S/KM 1/2), 0.55 ± 0.02 µM in data set [2] (IC50 (μM) at S/KM 2) and 0.172 µM in data set [2] (setting [7]). In addition, in data set [1] (setting [4]), the “Cytotoxicity activity (%)” value is recorded as -7.75%.

As to `O=C1NC(=O)C(=Cc2ccc(-c3cccc(C(F)(F)F)c3)o2)C(=O)N1` [WNN3953-B007], the IC50 was 0.77 ± 0.14 µM in data set [2] (IC50 (μM) at S/KM 1), 0.53 ± 0.1 µM in data set [2] (IC50 (μM) at S/KM 2) and 0.16 ± 0.009 µM in data set [2] (setting [7]). In data set [1] (setting [4]), the “Cytotoxicity activity (%)” value is on record as 13.01%.

`O=C1NC(=O)C(=Cc2ccc(-c3cccc(Cl)c3Cl)o2)C(=O)N1` [WNN3989-H007]: the IC50 in data set [2] (IC50 (μM) at S/KM 1/2) turned out to be 0.11 ± 0.01 µM; in data set [2] (setting [7]), 0.552 ± 0.12 µM. The “Cytotoxicity activity (%)” value in data set [1] (setting [4]) is -4.89%.
